The results in this text go back to ChEMBL document CHEMBL1150517, “The structural feature of S1 subsite of carboxypeptidase A” (Bioorg Med Chem Lett, 1991).

This assay has as its target T1, Carboxypeptidase A1 (Bos taurus, UniProt P00730).
T1 sequence (P00730 whole entry): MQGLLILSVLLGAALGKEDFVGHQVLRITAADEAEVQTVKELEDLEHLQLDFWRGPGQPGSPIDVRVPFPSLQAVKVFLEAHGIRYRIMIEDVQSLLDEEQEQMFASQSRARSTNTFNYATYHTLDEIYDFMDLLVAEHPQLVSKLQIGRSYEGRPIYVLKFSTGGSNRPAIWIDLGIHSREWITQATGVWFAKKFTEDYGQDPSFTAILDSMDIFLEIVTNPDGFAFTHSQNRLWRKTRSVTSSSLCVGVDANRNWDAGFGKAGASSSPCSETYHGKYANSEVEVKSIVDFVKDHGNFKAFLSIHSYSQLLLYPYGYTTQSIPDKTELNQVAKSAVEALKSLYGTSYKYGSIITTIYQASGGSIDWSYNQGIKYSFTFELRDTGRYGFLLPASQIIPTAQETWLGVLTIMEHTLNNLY
Briefly: Binding affinity against carboxypeptidase A using hippurylphenylalanine as substrate.
Compound `O=C(O)C(CS)Cc1c(F)c(F)c(F)c(F)c1F` (configuration not stated) displayed a Ki of 2300 nM. Next, `Cc1cccc(CC(CS)C(=O)O)c1` (configuration not stated): 170 nM; `CC(C)c1ccc(CC(CS)C(=O)O)cc1` (configuration not stated): 4500 nM; `CC(C)(C)c1ccc(CC(CS)C(=O)O)cc1` (configuration not stated): 7700 nM. On to `O=C(O)C(CS)Cc1ccccc1F` (configuration not stated), for which the affinity corresponds to a Ki of 45 nM. This Ki lies about 170-fold lower than the previous one. With `O=C(O)C(CS)Cc1ccc2ccccc2c1` (configuration not stated), the Ki came to 200 nM. In turn, `O=C(O)C(CS)Cc1cccc2ccccc12` (configuration not stated) had a Ki of 480 nM. Take `Cc1ccccc1CC(CS)C(=O)O` (configuration not stated): the affinity, expressed as Ki, was 120 nM. Next, `O=C(O)C(CS)Cc1ccccc1` (configuration not stated): 11 nM; `Cc1ccc(CC(CS)C(=O)O)cc1` (configuration not stated): 112 nM.

Take `O=C(O)C(CS)Cc1cccc(F)c1` (configuration not stated): the affinity, expressed as Ki, was 35 nM. `O=C(O)C(CS)CC1CCCCC1` (configuration not stated) registered a Ki of 2350 nM. Consider `Cc1cccc(CC(CS)C(=O)O)c1C` (configuration not stated), for which the Ki came out at 350 nM. With `O=C(O)C(CS)Cc1cc(F)c(F)c(F)c1` (configuration not stated), the affinity corresponds to a Ki of 590 nM. This Ki lies about 1.7-fold higher than the previous one. `O=C(O)C(CS)Cc1ccc(F)c(F)c1` (configuration not stated) yielded a Ki of 250 nM. Compound `Cc1ccc(CC(CS)C(=O)O)cc1C` (configuration not stated) yielded a Ki of 492 nM. This Ki lies about 2-fold higher than the previous one. On to `O=C(O)C(CS)Cc1ccc(F)cc1` (configuration not stated), for which the inhibitory constant (Ki) came to 37 nM.

In general, Ki refers to a dissociation constant, usually derived from enzyme kinetics or from competition with a known ligand. Read a high Ki as weaker binding.
